# Assay results from the supplement of paper PMC10307832.
# Experiments:
# Test in all cases: relative viability (nuclei count vs DMSO), 5 days (fraction); higher = more cells survive
# [1] = compound: O=C(NC1CCNCC1)c1n[nH]cc1NC(=O)c1c(Cl)cccc1Cl [AT-7519] + O=C(c1cc(Cc2n[nH]c(=O)c3ccccc23)ccc1F)N1CCN(C(=O)C2CC2)CC1 [Olaparib] (partner 8 µM)
# Outline: (§1)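 Dosing by pin tool came one day after lung cancer cell lines were seeded in 1536-well plates, using either one drug or a fixed anchor-drug dose plus five library-drug doses (not always all listed) in √10 steps. After 5 days, nuclei were counted on 4× images. Relative viability is treated-well nuclei count divided by vehicle-well nuclei count, and values are medians of duplicate plates.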
# [2] = compound: C1=CC2=C(C=C(C(=C2N=C1)O)N=NC3=CC4=C(C=C3)C=C(C=C4)S(=O)(=O)O)S(=O)(=O)O + CS(=O)(=O)N1CCN(Cc2cc3nc(-c4cccc5[nH]ncc45)nc(N4CCOCC4)c3s2)CC1 [Pictilisib] (partner 1 µM)
# Outline: as §1
# [3] = compound: O=C(NC1CCNCC1)c1n[nH]cc1NC(=O)c1c(Cl)cccc1Cl [AT-7519] + CS(=O)(=O)CCNCc1ccc(-c2ccc3ncnc(Nc4ccc(OCc5cccc(F)c5)c(Cl)c4)c3c2)o1 [Lapatinib] (partner 2 µM)
# Outline: as §1
# [4] = compound: C1=CC2=C(C=C(C(=C2N=C1)O)N=NC3=CC4=C(C=C3)C=C(C=C4)S(=O)(=O)O)S(=O)(=O)O + CC(=O)Nc1cccc(-n2c(=O)n(C3CC3)c(=O)c3c(Nc4ccc(I)cc4F)n(C)c(=O)c(C)c32)c1 [Trametinib] (partner 0.02 µM)
# Outline: as §1
cell line,measurement,setting,value
UMC-11,relative viability,[1]; first compound 0.01 µM,0.333
same,relative viability,[1]; first compound 0.03162 µM,0.368
same,relative viability,[1]; first compound 0.3162 µM,0.373
same,relative viability,[1]; first compound 1 µM,0.229
same,relative viability,[2]; first compound 0.08 µM,1.05
same,relative viability,[2]; first compound 0.253 µM,0.762
same,relative viability,[2]; first compound 0.8 µM,0.761
same,relative viability,[2]; first compound 2.53 µM,0.908
same,relative viability,[2]; first compound 8 µM,0.833
same,relative viability,[3]; first compound 0.01 µM,1.18
same,relative viability,[3]; first compound 0.03162 µM,0.988
same,relative viability,[3]; first compound 0.3162 µM,0.519
same,relative viability,[3]; first compound 1 µM,0.252
same,relative viability,[4]; first compound 0.08 µM,0.74
same,relative viability,[4]; first compound 0.253 µM,0.777
same,relative viability,[4]; first compound 0.8 µM,0.658
same,relative viability,[4]; first compound 2.53 µM,0.728
same,relative viability,[4]; first compound 8 µM,0.766
